{"source": "paper PMC7808659", "about": "“Lotus japonicus karrikin receptors display divergent ligand-binding specificities and organ-dependent redundancy” (PLoS Genetics, 2020)", "key": {"[1]": {"biological_target": "LjKAI2b (Lotus japonicus, UniProt I3S3D1, W158F)", "sequence (I3S3D1 entry or part of it W158F)": "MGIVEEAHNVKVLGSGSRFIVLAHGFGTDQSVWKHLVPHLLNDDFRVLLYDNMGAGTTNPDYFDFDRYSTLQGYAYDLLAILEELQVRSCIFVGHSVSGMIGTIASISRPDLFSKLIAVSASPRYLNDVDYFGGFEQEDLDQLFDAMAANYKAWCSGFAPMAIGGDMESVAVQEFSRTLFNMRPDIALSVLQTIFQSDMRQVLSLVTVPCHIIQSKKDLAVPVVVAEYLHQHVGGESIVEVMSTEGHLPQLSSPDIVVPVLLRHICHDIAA", "assay": "differential scanning fluorimetry; intrinsic tryptophan fluorescence", "type": "binding", "settings": "SYPRO Tangerine; response like wild-type LjKAI2a"}, "[2]": {"biological_target": "LjKAI2b (Lotus japonicus, UniProt I3S3D1, W158F/M161L/L191S)", "sequence (I3S3D1 entry or part of it W158F/M161L/L191S)": "as the sequence (I3S3D1 entry or part of it W158F) above, with M161L, L191S counted along it", "assay": "differential scanning fluorimetry; intrinsic tryptophan fluorescence", "type": "binding", "settings": "SYPRO Tangerine; shift from 25 uM", "text": "differential scanning fluorimetry; intrinsic tryptophan fluorescence on LjKAI2b | LjKAI2b^[…],[…],F158 gained a strong response to GR24^ent-5DS"}}, "data": [{"smiles": "CC1=C[C@@H](O/C=C2/C(=O)O[C@H]3c4ccccc4C[C@@H]23)OC1=O", "note": "(racemic) [GR24^ent-5DS]", "values": [{"measurement": "differential scanning fluorimetry; intrinsic tryptophan fluorescence", "setting": "[1]", "result": "LjKAI2b^F158 recapitulated the response of LjKAI2a to GR24^ent-5DS"}, {"measurement": "differential scanning fluorimetry; intrinsic tryptophan fluorescence", "setting": "[2]", "result": "LjKAI2b^L161,S191,F158 gained a strong response to GR24^ent-5DS"}]}]}
